Experimental data: patent US20160194718A1, “Compositions and Methods for Identification, Assessment, Prevention, and Treatment of Cancer Using Histone H3K27ME3 Biomarkers and Modulators” (DANA-FARBER CANCER INSTITUTE, INC., priority 2013, published 2016)

Assays:
H3K27me3 = test: Western blotting of B cell colonies for H3K27me3; assay type: cell-based, mouse
Experimental: Western blotting was performed as described in Yoda et al. (2010) Proc. Natl. Acad. Sci. U.S.A. 107:252-257. Image J (available on the World Wide Web at imagej.nih.gov/ij) was used for quantitation of immunoblots, with band intensity normalized to total H3.
(§1) GSK-J4 (KDM6A/UTX and KDM6B/JMJD3 inhibitor, catalog #M60063-2) (Kruidenier et al. (2012) Nature 488:404-408) and GSK-126 (EZH2 inhibitor, catalog #M60071-2) (McCabe et al. (2012) Nature 492:108-112) were purchased from Xcessbio. For methylcellulose experiments, at each passage DMSO, GSK-J4, or GSK-126 were added to cultures a final concentration of 1 μM. DS-ALLs (deidentified specimens obtained with informed consent under DFCI IRB protocol 05-001) were treated In vitro in quadruplicate with GSK-J4 at two-fold dilutions from 40 nM to 10 μM in RPMI with 20% calf serum supplemented with 10 ng/mL IL3, IL7, SCF, FLT3 ligand, and 50 μM beta-mercaptoethanol. After 3 days, viability was measured using CellTiter-Glo reagent and normalized to DMSO control (Promega).

wild-type B cells = test: Methylcellulose B cell colony forming / repassaging assay with drug; assay type: cell-based, mouse
Experimental: Whole bone marrow was harvested from 6-8-week-old mice, and red blood cells were lysed. Cells were plated in B cell (Methocult M3630, Stem Cell Technologies) or myeloid (Methocult M3434) methylcelluose media in gridded 35 mm dishes. Myeloid colonies were plated at 2×10^4 cells/ml per passage. B cell colonies were plated at 2×10^5 cells/ml in passage 1, and at 5×10^4 cells/ml per subsequent passage. Colonies were counted at 7 days, and colonies were then pooled and replated in the same manner.
as §1

DS-ALLs = DS-ALLs treated in vitro with GSK-J4, viability by CellTiter-Glo; assay type: cell-based; details: Homo sapiens, 72 h; five DS-ALLs, 3 days, two-fold dilutions 40 nM to 10 μM, normalized to DMSO; read-out: IC50 values for GSK-J4 across a panel of DS-ALLs
Experimental: as §1

[1] = test system: human primary macrophages; details: 10 μM; cited from earlier work
Ts1Rhr B cells = test: Methylcellulose B cell colony forming / repassaging assay with drug; assay type: cell-based, mouse; details: 1 μM added at each passage
Experimental: as §1, with “Whole bone marrow was harvested from 6-8-week-old mice, and red blood cells were lysed. Cells were plated in B cell (Methocult M3630, Stem Cell Technologies) or myeloid (Methocult M3434) methylcelluose media in gridded 35 mm dishes. Myeloid colonies were plated at 2×10^4 cells/ml per passage. B cell colonies were plated at 2×10^5 cells/ml in passage 1, and at 5×10^4 cells/ml per subsequent passage. Colonies were counted at 7 days, and colonies were then pooled and replated in the same manner. GSK-J4 (KDM6A/UTX” for “GSK-J4 (KDM6A/UTX”

[2] = 1 μM, passage 2 colonies after 14 total days in culture

| SMILES | H3K27me3 in wild-type B cells (H3K27me3; [2]) | loss of H3K27me3 after withdrawal of compound (H3K27me3; wild-type cells, one passage (7 days) after removal) | indefinite repassaging in wild-type B cells (wild-type B cells; 1 μM added at each passage) | indefinite repassaging after withdrawal of compound (wild-type B cells; wild-type cells, withdrawal at passage 5) | H3K27me3 in Ts1Rhr B cells (H3K27me3; [2]) | IC50 (DS-ALLs) | lipopolysaccharide-induced proinflammatory cytokine production [1] | indefinite repassaging (Ts1Rhr B cells) | colony-forming activity (Ts1Rhr B cells; vs DMSO) |
| --- | --- | --- | --- | --- | --- | --- | --- | --- | --- |
| CC[C@H](C)n1cc(C)c2c(C(=O)NCc3c(C)cc(C)[nH]c3=O)cc(-c3ccc(N4CCNCC4)nc3)cc21 [GSK-126, (S)-1-(sec-butyl)-N-((4,6-dimethyl-2-oxo-1,2-dihydropyridin-3-yl)methyl)-3-methyl-6-(6-(piperazin-1-yl)pyridin-3-yl)-1H-indole-4-carboxamide] | decreased H3K27me3 | reversible | sufficient to confer indefinite repassaging | reversible |  |  |  |  |  |
| CCOC(=O)CCNc1cc(N2CCc3ccccc3CC2)nc(-c2ccccn2)n1 [GSK-J4, ethyl 3-((6-(4,5-dihydro-1H-benzo[d]azepin-3(2H)-yl)-2-(pyridin-2-yl)pyrimidin-4-yl)amino)propanoate] |  |  |  |  | increased H3K27me3 | 1400 to 2500 nM | reduces | blocked indefinite repassaging | decreased colony-forming activity |
